From US11905255B1, “Solid state forms of (S)-2-(((S)-6,8-difluoro-1,2,3,4-tetrahydronaphthalen-2-yl)amino)-N-(1-(2-methyl-1-(neopentylamino)propan-2-yl)-1H-imidazol-4-yl)pentanamide and uses thereof” (Pfizer Inc., priority 2019, dated 2024)
Like-named read-outs stand apart in the source and are kept apart here. Blank lines part the entries; values can stand above or below the compound they belong to.

Legend:
[1] = Description: Weighed samples of material were treated with aliquots of specified solvents at ambient temperature. Samples were typically sonicated between additions to facilitate dissolution. Complete dissolution was observed through visual inspection. Solubility was calculated based on the total amount of solvent added to achieve complete dissolution and may be greater than the value reported due to incremental solvent addition and the inherent kinetics of dissolution. If dissolution was not observed, values are reported as “less than”. If dissolution was observed upon the first addition of solvent, values are reported as “greater than”.
• (a) Solubility estimated using solvent addition method via visual assessment of samples. Values are rounded to nearest whole number and reported as “<” if dissolution was not observed. • (b) non-cGMP samples.

[2] = 3 weeks slurry, gravimetric
Description: After approximately 24 hours, solids were isolated by centrifugation using eppendorf centrifuge tubes equipped with a 0.45 μm nylon filter. […] Equilibrium solubility of solids isolated were determined gravimetrically as follows. Measured aliquots of mother liquor solutions from the 3-week slurries were place in pre-weighed aluminum TGA pans. Subsequently, solvents were evaporated under ambient conditions or using vacuum. Remaining solids were weighed. • (a) Experiments were conducted for a total of ˜1 week and ˜3 weeks, both with solvent replacement after ˜1 day of slurrying. Solvent ratios (v/v) and duration of experiments are approximate.

[3] = Drying experiments on selected materials, solid form by XRPD; type: physicochemical
From the text: Table 6 summarizes the drying conditions for selected materials. • (a) Temperature, RH, and duration of experiments are approximate.

- Solubility Estimate (a) [1]: <1 mg/mL
Compound: Br.Br.CCC[C@H](N[C@H]1CCc2cc(F)cc(F)c2C1)C(=O)Nc1cn(C(C)(C)CNCC(C)(C)C)cn1 [dihydrobromide salt of Compound 1, dihydrobromide salt of (s)-2-(((s)-6,8-difluoro-1,2,3,4-tetrahydronaphthalen-2-yl)amino)-n-(1-(2-methyl-1-(neopentylamino)propan-2-yl)-1h-imidazol-4-yl)pentanamide]

- Solubility (b) ([2]; DMF/ACN (65/35), ambient): 10 mg/mL
- Solubility (b) ([2]; DMF/IPA (60/40), ambient): 13 mg/mL
- Solubility (b) ([2]; DMF/MIBK (85/15), ambient): 19 mg/mL
- Solubility (b) ([2]; Dioxane/H2O (70/30), ambient): 24 mg/mL
- Solubility (b) ([2]; EtOH/H2O (60/40), ambient): 36 mg/mL
- Solubility (b) ([2]; H2O, ambient): 14 mg/mL
- Solubility (b) ([2]; MEK/DMF (20/80), ambient): 17 mg/mL
- Solubility (b) ([2]; MeOH (anhydrous), 2-8° C. (cold room)): 13 mg/mL
- Solubility (b) ([2]; MeOH/Acetone (anhydrous) (50/50), ambient): 7 mg/mL
- Solubility (b) ([2]; MeOH/EtOAc (anhydrous) (70/30), ambient): 6 mg/mL
- Solubility (b) ([2]; MeOH/H2O (20/80), ambient): 17 mg/mL
- Solubility (b) ([2]; NMP/Acetone (anhydrous) (85/15), ambient): 36 mg/mL
- Solubility (b) ([2]; PG, ambient): 8 mg/mL
- Solubility (b) ([2]; THF/H2O (85/15), ambient): 25 mg/mL
Compound: Br.Br.CCC[C@H](N[C@H]1CCc2cc(F)cc(F)c2C1)C(=O)Nc1cn(C(C)(C)CNCC(C)(C)C)cn1 [Form A, (S)-2-(((S)-6,8-difluoro-1,2,3,4-tetrahydronaphthalen-2-yl)amino)-N-(1-(2-methyl-1-(neopentylamino)propan-2-yl)-1H-imidazol-4-yl)pentanamide]

- XRPD Results after drying ([3]; VO, 75° C., 1 day): Consistent with Form D
- XRPD Results after drying ([3]; VO, 77° C., 1 day): Consistent with Form F;
Compound: Br.Br.CCC[C@H](N[C@H]1CCc2cc(F)cc(F)c2C1)C(=O)Nc1cn(C(C)(C)CNCC(C)(C)C)cn1 [Form F, (S)-2-(((S)-6,8-difluoro-1,2,3,4-tetrahydronaphthalen-2-yl)amino)-N-(1-(2-methyl-1-(neopentylamino)propan-2-yl)-1H-imidazol-4-yl)pentanamide]

- XRPD Results after drying ([3]; Dried on P2O5, RT, 17 days, RH at prep.: 3%, RH at run: 43%, cell continues: selected peaks slightly shifted): Consistent with Form D,
Compound: Br.Br.CCC[C@H](N[C@H]1CCc2cc(F)cc(F)c2C1)C(=O)Nc1cn(C(C)(C)CNCC(C)(C)C)cn1 [Form D, (S)-2-(((S)-6,8-difluoro-1,2,3,4-tetrahydronaphthalen-2-yl)amino)-N-(1-(2-methyl-1-(neopentylamino)propan-2-yl)-1H-imidazol-4-yl)pentanamide]
